“And” between values parts separate entries of the source, which are not always exact repeats. Identical values can stand only once. “Also recorded” adds a separate entry of the source. Like-named read-outs stand apart in the source and are kept apart here.
How the values were obtained:
[1] = system: ubiquitin-overexpressing HEK 293 cells; assay: Cell survival in ubiquitin-overexpressing cells vs empty vector-transfected control cells; format: cell-based, human; conditions: 24-h treatment at IC50 of each compound (Myr 3 mM, DM 650 μM; puromycin 1 and 2 μM)
Description: (§1) HEK 293FT cells were evaluated for survival following compound treatments by the Alamar Blue (resazurin) assay. Cells were plated onto 96-well plates at 4.8 × 10^4 cells/well in 0.5% FBS-containing DMEM at 37 °C and 5% CO2. After 24 h, compounds were added. After 24-h treatment, resazurin was added to a final concentration of 0.12 mM. Following 4-h incubation, conversion to the resorufin product was measured (with excitation at 542 nm and emission at 590 nm) on a fluorescence plate reader.
(§2) HEK 293FT cells (1.5 × 10^6) were plated onto 6-cm plates in 5 ml of DMEM with 10% FBS and allowed to grow for 24 h at 37 °C and 5% CO2. For transfections, 6 μg of plasmid DNA (empty vector containing FLAG-tag sequence only, FLAG-Uba1, or FLAG-ubiquitin) and 10 μl of Lipofectamine 2000 were used for each plate. The DNA and the reagent were diluted separately in 500 μl of Opti-MEM (Gibco), and each was mixed by vortexing. After 5-min incubation, the two tubes were combined and incubated for another 20 min. Prior to adding the transfection solution to the cells, the medium was replaced with 4 ml of Opti-MEM. The transfection solution was then added dropwise. After 3-h incubation, the medium was changed to 0.5% FBS-containing DMEM, and the cells were plated for cell survival experiments, as above.

[2] = system: Uba1-overexpressing HEK 293 cells; assay: Cell survival in Uba1-overexpressing cells vs empty vector-transfected control cells; format: cell-based, human; conditions: 24-h treatment at IC50 of each compound (Myr 3 mM, DM 650 μM; puromycin 1 and 2 μM)
Description: as §1, §2

[3] = system: PCNA ubiquitination (RFC, Uba1, Rad6, Rad18, PCNA, ubiquitin); assay: Reconstituted PCNA ubiquitination cascade, Western blot quantitation; format: biochemical, human; conditions: for IC50: 15 min preincubation, 2 h with ATP, 2% DMSO, nonlinear regression, read-out: IC50 for inhibition of PCNA ubiquitination; for Activity in the PCNA ubiquitination assay (in words): up to 500 μM
Description: The PCNA loading and ubiquitination cascade was reconstituted in 96-well white round-bottom polypropylene plates (Greiner) in a buffer consisting of 40 mM Tris-HCl, pH 7.5, 8 mM MgCl2, and 10% glycerol with 2.5 nM nicked circular pUC19, 50 nM RFC, 50 nM Uba1, 250 nM Rad6–Rad18 dimer, 50 nM FLAG-PCNA, and 250 nM biotin-ubiquitin (final concentrations). Compounds were added to the samples, with preincubation for 15 min at 25 °C before addition of ATP to a final concentration of 2 mM (to initiate the reaction cascade), followed by incubation for 2 h at 25 °C. The reactions were then terminated by addition of EDTA to 20 mM for Alpha assays or Laemmli sample buffer for Western blot analyses. For Alpha assays, reaction mixtures were diluted in buffer containing streptavidin-conjugated donor beads and anti-FLAG antibody-conjugated acceptor beads in opaque white microplates under low-light conditions, as recommended by the Alpha bead manufacturer, PerkinElmer. The plates were read on a Tecan Spark microplate reader at 23 °C. For Western blot analyses, FLAG-PCNA was detected with anti-FLAG antibody, and quantitations from the Western blot images was performed with NIH ImageJ software[74] and then analyzed with GraphPad Prism software.

HEK 293FT cells = assay: Cell survival, Alamar Blue (resazurin) assay; format: cell-based, human; conditions: for Activity on cell viability / survival (in words) / IC50: 24-h treatment; for IC50: 2% DMSO, read-out: IC50 for inhibition of cell survival
Description: For cellular experiments, HEK 293FT cells (a fast-growing SV40 large T antigen-transformed strain of HEK 293 cells designed for enhanced transgene expression in transient transfections) were grown in growth medium consisting of Dulbecco’s modified Eagle’s medium (DMEM; Sigma-Aldrich), supplemented with 10% fetal bovine serum (FBS; Gibco) in a humified cell culture incubator at 37 °C with 5% CO2.
as §1

Uba1 = target: T1, Uba1 (Homo sapiens, UniProt P22314); assay: Uba1~ubiquitin thioester formation (Uba1, GST-ubiquitin, ATP; silver-stained gels); format: biochemical; conditions: for Activity in the Uba1~ubiquitin thioester formation assay (in words): up to 500 μM
T1 construct: His; host or cells: E. coli BL21(DE3)
T1 sequence (P22314 1-1058): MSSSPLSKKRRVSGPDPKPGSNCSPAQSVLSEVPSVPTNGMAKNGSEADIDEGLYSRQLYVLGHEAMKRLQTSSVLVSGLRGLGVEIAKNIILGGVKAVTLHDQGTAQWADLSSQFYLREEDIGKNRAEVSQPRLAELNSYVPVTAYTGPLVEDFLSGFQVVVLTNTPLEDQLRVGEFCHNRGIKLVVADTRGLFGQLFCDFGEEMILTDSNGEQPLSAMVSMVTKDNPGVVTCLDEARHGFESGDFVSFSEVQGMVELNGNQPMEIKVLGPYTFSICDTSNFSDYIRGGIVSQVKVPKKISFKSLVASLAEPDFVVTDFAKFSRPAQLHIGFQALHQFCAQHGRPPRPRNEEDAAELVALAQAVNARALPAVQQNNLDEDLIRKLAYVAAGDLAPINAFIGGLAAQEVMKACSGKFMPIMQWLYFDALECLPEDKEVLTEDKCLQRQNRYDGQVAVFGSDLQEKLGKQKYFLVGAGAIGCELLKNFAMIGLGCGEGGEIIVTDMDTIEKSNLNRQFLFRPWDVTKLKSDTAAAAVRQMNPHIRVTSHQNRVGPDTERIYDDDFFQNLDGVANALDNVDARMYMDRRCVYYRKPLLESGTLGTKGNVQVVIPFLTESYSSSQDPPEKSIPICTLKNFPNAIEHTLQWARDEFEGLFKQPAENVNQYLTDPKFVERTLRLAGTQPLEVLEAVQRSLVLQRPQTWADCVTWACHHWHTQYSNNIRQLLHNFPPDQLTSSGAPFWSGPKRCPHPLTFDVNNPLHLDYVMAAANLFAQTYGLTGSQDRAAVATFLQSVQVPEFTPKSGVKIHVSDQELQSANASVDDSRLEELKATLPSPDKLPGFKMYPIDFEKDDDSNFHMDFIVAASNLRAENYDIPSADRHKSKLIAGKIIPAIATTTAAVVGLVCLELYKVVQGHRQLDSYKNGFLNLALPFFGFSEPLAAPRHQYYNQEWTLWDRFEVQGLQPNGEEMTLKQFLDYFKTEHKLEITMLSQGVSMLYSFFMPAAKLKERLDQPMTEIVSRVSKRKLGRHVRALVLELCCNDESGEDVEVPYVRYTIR

[4] = Uba1 preincubated with compound 15 min, 2 h reaction, 2% DMSO, read-out: IC50 for inhibition of Uba1~ubiquitin thioester formation

COc1ccc(C[C@H](N)C(=O)N[C@H]2[C@@H](O)[C@H](n3cnc4c(N(C)C)ncnc43)O[C@@H]2CO)cc1 [puromycin, reference compound]
Effect of ubiquitin overexpression on cell survival [1]: no differences
Effect of Uba1 overexpression on cell survival [2]: no differences

O=C1c2c(O)cc(O)cc2O[C@H](c2cc(O)c(O)c(O)c2)[C@H]1O [DM, (+)-Dihydromyricetin]
Effect of ubiquitin overexpression on cell survival [1]: Protects
Effect of Uba1 overexpression on cell survival [2]: Does not protect
IC50 [3]: 66.4 µM
Activity in the PCNA ubiquitination assay (in words) [3]: active
Activity in the cell viability experiments at 500 μM (HEK 293FT cells; 24 h): only very weak activity
Activity on cell viability / survival (in words) (HEK 293FT cells): very weak activity
IC50 (HEK 293FT cells; Homo sapiens, HEK293FT, 24 h): > 500 µM
IC50 (Uba1; Fig. 6, unit printed as M, read-out: IC50 (Uba1~Ub)): 14.3 µM
IC50 (Uba1; [4]): 14.3 µM

Oc1cc(O)c2c(c1)O[C@H](c1ccc(O)c(O)c1)[C@@H](O)C2 [Cat, (+)-Catechin]
IC50 [3]: > 500 µM
Activity in the PCNA ubiquitination assay (in words) [3]: inactive
Activity in the cell viability experiments at 500 μM (HEK 293FT cells; 24 h): only very weak activity
IC50 (HEK 293FT cells; Homo sapiens, HEK293FT, 24 h): > 500 µM
IC50 (Uba1; [4]): > 500 µM
Activity in the Uba1~ubiquitin thioester formation assay (in words) (Uba1): inactive

O=C(O[C@@H]1Cc2c(O)cc(O)cc2O[C@@H]1c1ccc(O)c(O)c1)c1cc(O)c(O)c(O)c1 [ECG, (–)-Epicatechin-3-gallate]
Effect of ubiquitin overexpression on cell survival [1]: mitigated; also recorded: Protects
Effect of Uba1 overexpression on cell survival [2]: mitigated; also recorded: Protects
IC50 [3]: 0.537 µM
Activity in the PCNA ubiquitination assay (in words) [3]: active
Activity on cell viability / survival (in words) (HEK 293FT cells): active
IC50 (HEK 293FT cells): 262 µM
IC50 (HEK 293FT cells; Homo sapiens, HEK293FT, 24 h): 262 µM
IC50 (Uba1; [4]): 4.2 µM and 4.22 µM
Activity in the Uba1~ubiquitin thioester formation assay (in words) (Uba1): active

CCCOC(=O)c1cc(O)c(O)c(O)c1 [PG, n-Propyl gallate]
Effect of ubiquitin overexpression on cell survival [1]: not mitigated; also recorded: Does not protect
Effect of Uba1 overexpression on cell survival [2]: not mitigated; also recorded: Does not protect
IC50 [3]: > 500 µM
Activity in the PCNA ubiquitination assay (in words) [3]: inactive
Activity on cell viability / survival (in words) (HEK 293FT cells): little effects
IC50 (HEK 293FT cells): 176 µM
IC50 (HEK 293FT cells; Homo sapiens, HEK293FT, 24 h): 176 µM
IC50 (Uba1; [4]): > 500 µM
Activity in the Uba1~ubiquitin thioester formation assay (in words) (Uba1): inactive

O=C(O)c1cc(O)c(O)c(O)c1 [GA, Gallic acid]
Effect of ubiquitin overexpression on cell survival [1]: not mitigated; also recorded: Does not protect
Effect of Uba1 overexpression on cell survival [2]: not mitigated; also recorded: Does not protect
IC50 [3]: > 500 µM
Activity in the PCNA ubiquitination assay (in words) [3]: inactive
Activity on cell viability / survival (in words) (HEK 293FT cells): little effects
IC50 (HEK 293FT cells): 241 µM
IC50 (HEK 293FT cells; Homo sapiens, HEK293FT, 24 h): 241 µM
IC50 (Uba1; [4]): > 500 µM
Activity in the Uba1~ubiquitin thioester formation assay (in words) (Uba1): inactive

CCCCCCCCOC(=O)c1cc(O)c(O)c(O)c1 [OG, n-Octyl gallate]
Effect of ubiquitin overexpression on cell survival [1]: Protects
Effect of Uba1 overexpression on cell survival [2]: Protects
IC50 [3]: 10.3 µM
Activity in the PCNA ubiquitination assay (in words) [3]: active
Activity on cell viability / survival (in words) (HEK 293FT cells): active
IC50 (HEK 293FT cells; Homo sapiens, HEK293FT, 24 h): 38.7 µM
IC50 (Uba1; [4]): 80.6 µM
Activity in the Uba1~ubiquitin thioester formation assay (in words) (Uba1): active

Oc1cc(O)c2c(c1)O[C@H](c1ccc(O)c(O)c1)[C@H](O)C2 [EC, (–)-Epicatechin]
IC50 [3]: > 500 µM
Activity in the PCNA ubiquitination assay (in words) [3]: inactive
Activity in the cell viability experiments at 500 μM (HEK 293FT cells; 24 h): only very weak activity
IC50 (HEK 293FT cells; Homo sapiens, HEK293FT, 24 h): > 500 µM
IC50 (Uba1; [4]): > 500 µM
Activity in the Uba1~ubiquitin thioester formation assay (in words) (Uba1): inactive

CCCCCCCCCCCCOC(=O)c1cc(O)c(O)c(O)c1 [DG, n-Dodecyl gallate]
Effect of ubiquitin overexpression on cell survival [1]: Protects
Effect of Uba1 overexpression on cell survival [2]: Does not protect
IC50 [3]: 1.63 µM
Activity in the PCNA ubiquitination assay (in words) [3]: active
Activity on cell viability / survival (in words) (HEK 293FT cells): active
IC50 (HEK 293FT cells): 33.5 µM
IC50 (HEK 293FT cells; Homo sapiens, HEK293FT, 24 h): 33.5 µM
IC50 (Uba1; [4]): 35 µM
Activity in the Uba1~ubiquitin thioester formation assay (in words) (Uba1): active

Oc1cc(O)c2c(c1)O[C@H](c1cc(O)c(O)c(O)c1)[C@H](O)C2 [EGC, (–)-Epigallocatechin]
Effect of ubiquitin overexpression on cell survival [1]: not affected; also recorded: Does not protect
Effect of Uba1 overexpression on cell survival [2]: not affected; also recorded: Does not protect
IC50 [3]: 43.3 µM
Activity in the PCNA ubiquitination assay (in words) [3]: weak activity
Activity on cell viability / survival (in words) (HEK 293FT cells): measurable cytostatic/cytotoxic activity
IC50 (HEK 293FT cells): 176 µM
IC50 (HEK 293FT cells; Homo sapiens, HEK293FT, 24 h): 176 µM
IC50 (Uba1; [4]): 7.6 µM and 7.58 µM
Activity in the Uba1~ubiquitin thioester formation assay (in words) (Uba1): weak activity
